The values below come from patent EP4737448A1, “SARM1 ENZYME ACTIVITY INHIBITOR AND USE THEREOF” (Artivila (ShenZhen) Innovation Center, Ltd., priority 2023, dated 2025).

The target of the assay is T1, SARM1 (Homo sapiens, UniProt Q6SZW1).
T1 construct: the inventor produces full-length SARM1 for NADase activity assays and for screening; His (C); made in house; host or cells: HEK293 cells (transient transfection; digitonin lysate supernatant, not purified further)
T1 sequence (Q6SZW1 28-724): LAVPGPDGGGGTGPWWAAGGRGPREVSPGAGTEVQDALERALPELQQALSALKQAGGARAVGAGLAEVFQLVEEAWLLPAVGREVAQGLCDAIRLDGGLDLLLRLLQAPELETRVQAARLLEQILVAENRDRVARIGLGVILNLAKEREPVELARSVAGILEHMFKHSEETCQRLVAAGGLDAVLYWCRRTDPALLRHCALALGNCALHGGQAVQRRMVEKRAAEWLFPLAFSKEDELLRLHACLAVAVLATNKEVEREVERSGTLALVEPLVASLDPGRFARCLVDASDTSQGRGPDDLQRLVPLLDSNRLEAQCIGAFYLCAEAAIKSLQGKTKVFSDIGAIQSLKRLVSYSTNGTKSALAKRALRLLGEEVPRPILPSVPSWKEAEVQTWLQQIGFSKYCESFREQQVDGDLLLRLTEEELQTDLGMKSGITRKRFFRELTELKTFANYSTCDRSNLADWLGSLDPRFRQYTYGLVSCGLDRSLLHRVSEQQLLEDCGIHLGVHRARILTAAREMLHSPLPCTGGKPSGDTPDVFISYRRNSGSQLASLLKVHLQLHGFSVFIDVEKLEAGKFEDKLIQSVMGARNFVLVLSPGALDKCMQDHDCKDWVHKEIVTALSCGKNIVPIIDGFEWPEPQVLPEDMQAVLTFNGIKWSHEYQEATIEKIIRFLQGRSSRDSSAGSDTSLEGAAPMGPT
Kind of assay: In vitro biochemical assay for inhibiting SARM1 enzymatic activity (PC6 fluorescence, NAD substrate, NMN activator). The conditions noted are these: 0.05 µg/mL SARM1, 50 µM NAD, 50 µM PC6, 50 µM NMN, 10 min pre-incubation, 30 min at room temperature. As for the experimental part:
Compounds to be tested were stocked at 200 µM or 10 mM (in DMSO), and further diluted to the desired compound concentration for the in vitro SARM1 enzyme assay and inhibitor screening.
The gene sequence encoding SARM1 protein was amplified by PCR and the PCR amplification product was constructed into the pcDNA3.1-HIS-C plasmid. This construction was completed by YouBio Biological Technology (Hunan, China).
HEK293 cells were cultured in DMEM in a 10 cm dish. The next day, cells were transfected with 15 µg of the pcDNA3.1-SARM1-HIS-C expression plasmid.
Cells were harvested 48 hours after the transfection. The SARM1 protein expressed in cells was obtained through cell lysis by digitonin, which was used for in vitro activity assay. The specific process was as follows:
Cells were digested and detached from the dish using trypsin-EDTA, centrifuged at 1000 rpm for 5 minutes, washed once with PBS, then resuspended in PBS containing 100 µM digitonin at 0.6 mL PBS for the cells in 10 cm dish and lysed for 5 min. The cells were added with trypan blue and observed under a microscope. More than 90% of the cells were confirmed to be lysed. The cells were centrifuged at 5000 rpm for 10 min, and the supernatant containing SARM1 protein was collected.
The compound was added into a solution of 50 mM Tris-HCl (pH 7.5) containing 0.05 µg/mL SARM1 to achieve a concentration of 200 µM, and then serially diluted 6 times, where each dilution was carried out by taking half of the previous solution and adding an equal volume of 50 mM Tris-HCl (pH 7.5) containing 0.05 µg/mL SARM1, yielding a set of final concentrations of the compound of either 200, 100, 50, 25, 12.5, 6.25 and 3.125 µM, or 200, 50, 12.5, 3.125, 0.78, 0.195 and 0.049 µM. No inhibitor was added in the control group. All mixtures were incubated at room temperature for 10 min.
Subsequently, 50 µM NAD, 50 µM PC6 as substrate and 50 µM NMN as activator were added to the SARM1 protein incubated with the inhibitor and reacted for 30 min at room temperature. Wherein, the aforementioned concentrations of each component represent their respective final concentrations in the reaction system
During the reaction, the fluorescence spectrum dynamics of PC6 was detected by a microplate reader, with excitation and emission wavelengths set at 390 nm and 520 nm, respectively. The activity of the protein was expressed as the reaction rate and half maximal inhibitory concentration was calculated. The higher the reaction rate, the stronger the protein activity, and the lower the inhibitory efficiency of the compound.
Dose-response curves for inhibition of SARM1 enzymatic activity for NAD by the compounds were plotted using the above method.

For “3-(4-chloro-2-fluorobenzyl)-1-(4-(pyridin-4-yl)phenyl)pyrrolidin-2-one [Compound 42]”, the 50% inhibitory concentration (IC50) lay in the range of 1 to 10 µM.

Consider `O=C1C(Oc2ccc(Cl)cc2)CCN1c1ccc(-c2ccncc2)cc1` (centres unmarked) [Compound 2, 3-(4-chlorophenoxy)-1-(4-(pyridin-4-yl)phenyl)pyrrolidin-2-one], for which the IC50 was in the range of 10 to 30 µM.

As for `CC(c1ccc(Cl)cc1)C1CCN(c2ccc(-c3ccncc3)cc2)C1=O` (centres unmarked) [Compound 4, 3-(1-(4-chlorophenyl)ethyl)-1-(4-(pyridin-4-yl)phenyl)pyrrolidin-2-one], the IC50 lay within 10 to 30 µM.

`C=C(Cc1ccc(Cl)cc1)C(=O)Nc1ccc(-c2ccncc2)cc1` [Compound 5] yielded a half-inhibitory concentration (IC50) of under 1 µM.

On to `O=C1C(Cc2ccc(Cl)cc2)CCN1c1ccc(-c2ccncn2)cc1` (centres unmarked) [Compound 9, 3-(4-chlorobenzyl)-1-(4-(pyrimidin-4-yl)phenyl)pyrrolidin-2-one], for which the concentration for half-maximal inhibition (IC50) is 1 to 10 µM.

In turn, `Cc1cc(N2CCC(Cc3ccc(Cl)cc3)C2=O)ccc1-c1ccncc1` (centres unmarked) [Compound 10, 3-(4-chlorobenzyl)-1-(3-methyl-4-(pyridin-4-yl)phenyl)pyrrolidin-2-one] yielded an IC50 of 1 to 10 µM.

In turn, `O=C1C(Cc2ccc(Cl)cc2)CCN1c1ccc(-c2ccncc2)cc1Cl` (centres unmarked) [Compound 11, 3-(4-chlorobenzyl)-1-(2-chloro-4-(pyridin-4-yl)phenyl)pyrrolidin-2-one] gave a concentration for half-maximal inhibition (IC50) of 10 to 30 µM.

As for `S=C1C(Cc2ccc(Cl)cc2)CCN1c1ccc(-c2ccncc2)cc1` (centres unmarked) [Compound 12], the half-maximal inhibitory concentration (IC50) is under 1 µM.

Compound `O=C1N(Cc2ccc(Cl)cc2)CCN1c1ccc(-c2ccncc2)cc1` [Compound 13, 1-(4-chlorobenzyl)-3-(4-(pyridin-4-yl)phenyl)imidazolin-2-one] displayed a concentration for half-maximal inhibition (IC50) of under 1 µM.

In turn, `Cc1cnccc1-c1ccc(N2CCC(Cc3ccc(Cl)cc3)C2=O)cc1` (centres unmarked) [Compound 14, 3-(4-chlorobenzyl)-1-(4-(3-methylpyridin-4-yl)phenyl)pyrrolidin-2-one] came in with an IC50 of under 1 µM.

`O=C1C(Cc2ccc(Cl)c(F)c2)CCN1c1ccc(-c2ccncc2)cc1` (centres unmarked) [Compound 16, 3-(4-chloro-3-fluorobenzyl)-1-(4-(pyridin-4-yl)phenyl)pyrrolidin-2-one] came in with an IC50 of 1 to 10 µM.

The compound `O=C1C(Cc2ccc(C(F)(F)F)cc2)CCN1c1ccc(-c2ccncc2)cc1` (centres unmarked) [Compound 18, 3-(4-trifluoromethylbenzyl)-1-(4-(pyridin-4-yl)phenyl)pyrrolidin-2-one] yielded an IC50 of 1 to 10 µM.

Compound `N#Cc1ccc(CC2CCN(c3ccc(-c4ccncc4)cc3)C2=O)cc1` (centres unmarked) [Compound 19, 3-(4-cyanobenzyl)-1-(4-(pyridin-4-yl)phenyl)pyrrolidin-2-one] registered an IC50 of 1 to 10 µM.

Turning to `O=C1C(Cc2ccc(Cl)cc2)=CCN1c1ccc(-c2ccncc2)cc1` [Compound 22], the IC50 lay in the range of 1 to 10 µM.

In turn, `O=C1C(Cc2ccc(Cl)cc2)CCN1c1cnc(-c2ccncc2)nc1` (centres unmarked) [Compound 23, 3-(4-chlorobenzyl)-1-(2-(pyridin-4-yl)pyrimidin-5-yl)pyrrolidin-2-one] gave a concentration for half-maximal inhibition (IC50) of 10 to 30 µM.

In the case of `O=C1C(Cc2cccc(Cl)c2)CCN1c1ccc(-c2ccncc2)cc1` (centres unmarked) [Compound 26, 3-(3-chlorobenzyl)-1-(4-(pyridin-4-yl)phenyl)pyrrolidin-2-one], the IC50 was in the range of 10 to 30 µM.

As for `O=C1C(CCc2ccc(Cl)cc2)CCN1c1ccc(-c2ccncc2)cc1` (centres unmarked) [Compound 27, 3-(4-chlorophenethyl)-1-(4-(pyridin-4-yl)phenyl)pyrrolidin-2-one], the IC50 was 10 to 30 µM.

In the case of `O=C1C(Cc2ccc(Cl)cn2)CCN1c1ccc(-c2ccncc2)cc1` (centres unmarked) [Compound 28], the IC50 lay within 10 to 30 µM.

As to `O=C1C(Cc2ccc(Br)cc2)CCN1c1ccc(-c2ccncc2)cc1` (centres unmarked) [Compound 31, 3-(4-bromobenzyl)-1-(4-(pyridin-4-yl)phenyl)pyrrolidin-2-one], the concentration for half-maximal inhibition (IC50) lay in the range of 10 to 30 µM.

`O=C1C(Cc2ccc([N+](=O)[O-])cc2)CCN1c1ccc(-c2ccncc2)cc1` (centres unmarked) [Compound 32, 3-(4-nitrobenzyl)-1-(4-(pyridin-4-yl)phenyl)pyrrolidin-2-one] yielded an IC50 of 10 to 30 µM.

With `O=C1C(Cc2ccc(Cl)cc2)CCN1c1ccc(-c2ccncc2F)cc1` (centres unmarked) [Compound 35, 3-(4-chlorobenzyl)-1-(4-(3-fluoropyridin-4-yl)phenyl)pyrrolidin-2-one], the IC50 was under 1 µM.

For the compound `N#Cc1cnccc1-c1ccc(N2CCC(Cc3ccc(Cl)cc3)C2=O)cc1` (centres unmarked) [Compound 36, 3-(4-chlorobenzyl)-1-(4-(3-cyanopyridin-4-yl)phenyl)pyrrolidin-2-one], the 50% inhibitory concentration (IC50) was in the range of 10 to 30 µM.

Compound `NC(=O)c1cnccc1-c1ccc(N2CCC(Cc3ccc(Cl)cc3)C2=O)cc1` (centres unmarked) [Compound 37] returned an IC50 of 1 to 10 µM.

The compound `O=C1C(Cc2ccc(Cl)cc2)CCCN1c1ccc(-c2ccncc2)cc1` (centres unmarked) [Compound 38, 3-(4-chlorobenzyl)-1-(4-(pyridin-4-yl)phenyl)piperidin-2-one] came in with a concentration for half-maximal inhibition (IC50) of 1 to 10 µM.

On to `COc1cc(-c2ccncc2)ccc1N1CCCC(Cc2ccc(Cl)cc2)C1=O` (centres unmarked) [Compound 39, 3-(4-chlorobenzyl)-1-(2-methoxy-4-(pyridin-4-yl)phenyl)piperidin-2-one], for which the concentration for half-maximal inhibition (IC50) was in the range of 1 to 10 µM.

For `O=C1C(Cc2ccc(Cl)cc2)CCON1c1ccc(-c2ccncc2)cc1` (centres unmarked) [Compound 40, 4-(4-chlorobenzyl)-2-(4-(pyridin-4-yl)phenyl)-1,2-oxaza-3-one], the IC50 fell in the range of 1 to 10 µM.

`O=C1CC(Cc2ccc(Cl)cc2)C(=O)N1c1ccc(-c2ccncc2)cc1` (centres unmarked) [Compound 43, 3-(4-chlorobenzyl)-1-(4-(pyridin-4-yl)phenyl)pyrrolidin-2,5-one] registered an IC50 of 1 to 10 µM.

Consider `N#Cc1ccc(CC2CCN(c3ccc(-c4ccncc4)nn3)C2=O)cc1` (centres unmarked) [Compound 61], for which the concentration for half-maximal inhibition (IC50) is under 1 µM.

The compound `Cc1ccc(CC2CCN(c3ccc(-c4ccncc4)nn3)C2=O)cc1` (centres unmarked) [Compound 63] had an IC50 of under 1 µM.

Compound `O=C1C(Cc2cc(F)cc(F)c2)CCN1c1ccc(-c2ccncc2)nn1` (centres unmarked) [Compound 68] returned an IC50 of under 1 µM.

Turning to `O=C1C(Cc2ccc(Cl)o2)CCN1c1ccc(-c2ccncc2)cc1` (centres unmarked) [Compound 73], the 50% inhibitory concentration (IC50) fell in the range of 1 to 10 µM.

For `Cc1cnccc1-c1ccc(N2CCC(Cc3ccc(Cl)cc3)C2=O)nn1` (centres unmarked) [Compound 74, 3-(4-chlorobenzyl)-1-(6-(3-methylpyridin-4-yl)pyridazin-3-yl)pyrrolidin-2-one], the half-inhibitory concentration (IC50) is under 1 µM.

On to `O=C1/C(=C/c2ccc(Cl)cc2)CCN1c1ccc(-c2ccncc2)nn1` [Compound 78, (E)-3-(4-chlorobenzylidene)-1-(6-(pyridin-4-yl)pyridazin-3-yl)pyrrolidin-2-one], for which the IC50 is 10 to 30 µM.

Consider `O=C1C(Cc2ccc(F)c(F)c2)=CCN1c1ccc(-c2ccncc2)cc1` [Compound 85, 3-(3,4-difluorobenzyl)-1-(4-(pyridin-4-yl)phenyl)-1,5-dihydro-2H-pyrrolidin-2-one], for which the IC50 was 1 to 10 µM.

As for `COC(=O)c1ccc(CC2CCN(c3ccc(-c4ccncc4)cc3)C2=O)cc1` (centres unmarked) [Compound 86, methyl 4-((2-oxo-1-(4-(pyridin-4-yl)phenyl)pyrrolidin-3-yl)methyl)benzoate], the half-maximal inhibitory concentration (IC50) lay in the range of 1 to 10 µM.

For orientation: IC50 means the concentration that gives 50% inhibition.
